Data on 28 compounds can be found in paper PMC8286840, “Identifying SARS-CoV-2 antiviral compounds by screening for small molecule inhibitors of Nsp3 papain-like protease” (Biochemical Journal, 2021).

In experiment [1] the target is T1, SARS-CoV-2 PLpro (nsp3 1564–1878) (Severe acute respiratory syndrome coronavirus 2, UniProt P0DTD1). The experiment in a line: biochemical. Details: FRET-quenched peptide (Pro3) cleavage by PLpro, 10 min pre-incubation, slope over 20 min, normalised to no-compound control. Particulars: low concentration screen, read-out: % of control remaining.
In experiment [2] the target is T1, SARS-CoV-2 PLpro (nsp3 1564–1878). The experiment in a line: biochemical. Details: FRET-quenched peptide (Pro3) cleavage by PLpro, 10 min pre-incubation, slope over 20 min, normalised to no-compound control. The conditions noted are these: high concentration screen, read-out: % of control remaining.

Structures can show the parent of a compound that is named as a salt. Where two headings read alike, the source gives them in different places. Where a SMILES comes first, the peptide text is derived from it. Bridges are numbered along the chain shown (N, C = ends). [ ]: non-standard residue; d: D form. The star is where a group is joined. NMePhe(4-NMe2) = CN[C@@H](Cc1ccc(N(C)C)cc1)C(=O)O; Pip(4-oxo) = O=C1CCN[C@H](C(=O)O)C1; Picolinoyl(3-OH) = O=C(c1ncccc1O)*; Phg = N[C@H](C(=O)O)c1ccccc1; dAbu = CC[C@@H](N)C(=O)O

Regarding `CCC1(c2ccccc2)C(=O)NCNC1=O` [Primidone], the remaining activity at 1.25 µM in experiment [1] (Well no.=1443) amounted to 101%. Further, in experiment [2] (Well no.=1443), the remaining activity at 3.75 µM was found to be 95.8%.

Turning to `CC[C@H]1NC(=O)[C@@H](NC(=O)c2ncccc2O)[C@@H](C)OC(=O)[C@H](c2ccccc2)NC(=O)[C@@H]2CC(=O)CCN2C(=O)[C@H](Cc2ccc(N(C)C)cc2)N(C)C(=O)[C@@H]2CCCN2C1=O` [Pristinamycin IA] ({Picolinoyl(3-OH)}-T[dAbu]P[NMePhe(4-NMe2)][Pip(4-oxo)][Phg]; ester 1-C), the remaining activity at 1.25 µM in experiment [1] (Well no.=7980) is 96.9%. Also, the remaining activity at 3.75 µM in experiment [2] (Well no.=7980) stood at 96.6%.

On to `CCCN(CCC)S(=O)(=O)c1ccc(C(=O)O)cc1` [Probenecid (Benemid)], for which the remaining activity at 1.25 µM in experiment [1] (Well no.=4972) turned out to be 95.9%. The remaining activity at 3.75 µM in experiment [2] (Well no.=4972) was determined as 91.7%.

As to `CC(C)(Sc1cc(C(C)(C)C)c(O)c(C(C)(C)C)c1)Sc1cc(C(C)(C)C)c(O)c(C(C)(C)C)c1` [Probucol], in experiment [1] (Well no.=4083), the remaining activity at 1.25 µM came out at 98.5%. Further, the remaining activity at 3.75 µM in experiment [2] (Well no.=4083) was determined as 105%.

Turning to `CCN(CC)CCNC(=O)c1ccc(N)cc1` [Procainamide hydrochloride], the remaining activity at 1.25 µM in experiment [1] (Well no.=1307) was found to be 96.8%. The remaining activity at 3.75 µM in experiment [2] (Well no.=1307) was determined as 98.9%.

With `CCN(CC)CCNC(=O)c1ccc(N)cc1` [Procainamide.HCl], the remaining activity at 1.25 µM in experiment [1] (Well no.=1645) stood at 108%. Also, the remaining activity at 3.75 µM in experiment [2] (Well no.=1645) was 107%.

Regarding `CCN(CC)CCOC(=O)c1ccc(N)cc1` [Procaine hydrochloride], the remaining activity at 1.25 µM in experiment [1] (Well no.=1165) came out at 103%. In addition, the remaining activity at 3.75 µM in experiment [2] (Well no.=1165) was determined as 105%.

`CNNCc1ccc(C(=O)NC(C)C)cc1` [Procarbazine]: the remaining activity at 1.25 µM in experiment [1] (Well no.=2145) is 104%. In experiment [2] (Well no.=2145), the remaining activity at 3.75 µM was found to be 105%.

For the compound `CCC(NC(C)C)C(O)c1ccc(O)c2[nH]c(=O)ccc12` (stereo not drawn) [Procaterol.HCl], the remaining activity at 1.25 µM in experiment [1] (Well no.=1745) came to 99.6%. In addition, the remaining activity at 3.75 µM in experiment [2] (Well no.=1745) turned out to be 101%.

For the compound `CN1CCN(CCCN2c3ccccc3Sc3ccc(Cl)cc32)CC1` [Prochlorperazine dimaleate], the remaining activity at 1.25 µM in experiment [1] (Well no.=1497) stood at 99.3%. For the same compound, the remaining activity at 3.75 µM in experiment [2] (Well no.=1497) stood at 101%.

`O=C1N[C@H](C(=O)O)CS1` [Procysteine]: the remaining activity at 1.25 µM in experiment [1] (Well no.=3897) came to 104%. In addition, the remaining activity at 3.75 µM in experiment [2] (Well no.=3897) was determined as 103%.

As for `CC(=O)[C@H]1CC[C@H]2[C@@H]3CCC4=CC(=O)CC[C@]4(C)[C@H]3CC[C@]12C` [Progesterone], the results for the remaining activity at 1.25 µM in experiment [1] (Well no.=852), in experiment [1] (Well no.=2143) and in experiment [1] (Well no.=7071) were 106%, 95.2% and 105%, respectively. For the same compound, the results for the remaining activity at 3.75 µM in experiment [2] (Well no.=852), in experiment [2] (Well no.=2143) and in experiment [2] (Well no.=7071) were 107%, 101% and 104%, respectively.

As to `CCCN(CCC)C(=O)C(CCC(=O)O)NC(=O)c1ccccc1` (stereo not drawn) [Proglumide], the remaining activity at 1.25 µM in experiment [1] (Well no.=941) was found to be 104%. Moreover, in experiment [2] (Well no.=941), the remaining activity at 3.75 µM amounted to 100%.

On to `CN(C)CCCN1c2ccccc2Sc2ccccc21` [Promazine hydrochloride], for which the remaining activity at 1.25 µM in experiment [1] (Well no.=1155) was determined as 104%. The remaining activity at 3.75 µM in experiment [2] (Well no.=1155) was found to be 102%.

Turning to `CC(CN1c2ccccc2Sc2ccccc21)N(C)C` (stereo not drawn) [Promethazine hydrochloride], the remaining activity at 1.25 µM in experiment [1] (Well no.=860) amounted to 100%. Moreover, the remaining activity at 3.75 µM in experiment [2] (Well no.=860) is 101%.

On to `CC(CN1c2ccccc2Sc2ccccc21)N(C)C` (stereo not drawn) [Promethazine.HCl], for which the remaining activity at 1.25 µM in experiment [1] (Well no.=1640) amounted to 96.2%. In experiment [2] (Well no.=1640), the remaining activity at 3.75 µM worked out at 97.2%.

In the case of `CCCNCC(O)COc1ccccc1C(=O)CCc1ccccc1` (stereo not drawn) [Propafenone hydrochloride], in experiment [1] (Well no.=956), the remaining activity at 1.25 µM worked out at 101%. Moreover, the remaining activity at 3.75 µM in experiment [2] (Well no.=956) came to 101%.

`CCCNCC(O)COc1ccccc1C(=O)CCc1ccccc1` (stereo not drawn) [Propafenone]: in experiment [1] (Well no.=1641), the remaining activity at 1.25 µM was 109%. Besides, the remaining activity at 3.75 µM in experiment [2] (Well no.=1641) stood at 110%.

Consider `CC(C)[N+](C)(CCOC(=O)C1c2ccccc2Oc2ccccc21)C(C)C` [Propantheline bromide], for which, in experiment [1] (Well no.=1401), the remaining activity at 1.25 µM turned out to be 102%. Also, in experiment [2] (Well no.=1401), the remaining activity at 3.75 µM came out at 102%.

Take `CCCn1cnc2c1c(=O)n(CCCCC(C)=O)c(=O)n2C` [Propentofylline]: the remaining activity at 1.25 µM in experiment [1] (Well no.=1403) was 95.1%. Further, the remaining activity at 3.75 µM in experiment [2] (Well no.=1403) was 94%.

With `CCC(=O)c1ccc2c(c1)N(CCCN(C)C)c1ccccc1S2` [Propionylpromazine hydrochloride], in experiment [1] (Well no.=1301), the remaining activity at 1.25 µM turned out to be 103%. Moreover, the remaining activity at 3.75 µM in experiment [2] (Well no.=1301) amounted to 106%.

As to `CC(C)c1cccc(C(C)C)c1O` [Propofol], the figures for the remaining activity at 1.25 µM in experiment [1] (Well no.=544) and in experiment [1] (Well no.=1893) were 104% and 92.7%, respectively. For the same compound, the remaining activity at 3.75 µM in experiment [2] (Well no.=544) turned out to be 103%; in experiment [2] (Well no.=1893), 89.6%.

As for `CCCOC(=O)c1ccc(O)cc1` [Propylparaben], the remaining activity at 1.25 µM in experiment [1] (Well no.=7453) came to 105%. Moreover, in experiment [2] (Well no.=7453), the remaining activity at 3.75 µM was 101%.

As to `CCCc1cc(=O)[nH]c(=S)[nH]1` [Propylthiouracil], in experiment [1] (Well no.=4670), the remaining activity at 1.25 µM turned out to be 98.7%. Further, the remaining activity at 3.75 µM in experiment [2] (Well no.=4670) amounted to 94.9%.

`CCCCC[C@H](O)/C=C/[C@H]1C=CC(=O)[C@@H]1CCCCCCC(=O)O` [Prostaglandin A1]: the remaining activity at 1.25 µM in experiment [1] (Well no.=3086) amounted to 99.1%; in experiment [1] (Well no.=4235), 89.4%. In addition, the figures for the remaining activity at 3.75 µM in experiment [2] (Well no.=3086) and in experiment [2] (Well no.=4235) were 101% and 94.9%, respectively.

As for `CCCCC[C@H](O)/C=C/[C@H]1C=CC(=O)[C@@H]1C/C=C\CCCC(=O)O` [Prostaglandin A2], the remaining activity at 1.25 µM in experiment [1] (Well no.=4467) worked out at 100%. The remaining activity at 3.75 µM in experiment [2] (Well no.=4467) was found to be 96.3%.

In the case of `CCCCC[C@H](O)/C=C/C1=C(CCCCCCC(=O)O)C(=O)CC1` [Prostaglandin B1], the remaining activity at 1.25 µM in experiment [1] (Well no.=3088) came to 99.1%; in experiment [1] (Well no.=4469), 102%. Moreover, the remaining activity at 3.75 µM turned out to be 100% in experiment [2] (Well no.=3088) and 102% in experiment [2] (Well no.=4469).

As to `CCCCC[C@H](O)/C=C/C1=C(C/C=C\CCCC(=O)O)C(=O)CC1` [Prostaglandin B2], the remaining activity at 1.25 µM in experiment [1] (Well no.=4471) was found to be 96.7%. Moreover, the remaining activity at 3.75 µM in experiment [2] (Well no.=4471) worked out at 101%.
